Measured values reported in US5320094A (The Johns Hopkins University, priority 1992, dated 1994).
Several values for one entry are separate records, joined by “and”; a condition that tells them apart may be missing. Identical values can stand only once. Like-named read-outs stand apart in the source and are kept apart here.

Legend:
[1] = test system: rabbits; details: micellar form, intrajejunal administration, reduction in blood glucose; cited from earlier work
[2] = test system: normal and non-insulin-dependent non-obese diabetic subjects; details: rectal suppository; cited from earlier work
[3] = test system: normal and NIDDM subjects; details: inhaled
Procedure: (§1) Subjects 3, 4 and 6 were medicated with Glyburide 10 mg/day, 15 mg/day, and 5 mg/day, respectively. Subject No. 5 was treated with Diabinese 750 mg/day. Subject No. 7 was medicated with Glyburide 20 mg/day and Subject No. 8 was unmedicated. […] Blood samples were assessed at the time of collection for glucose levels with a glucose meter (Accuchek). Determinations of plasma glucose levels were also obtained from photometric reaction with glucose hexokinase using an Hitachi 736 and 737 chemical analyzer (Boehringer Mannheim Diagnostics). The reference range for fasting adults using this technique and equipment is 3.92-6.44 SI units. […] The expected range of values for normals in the fasting state, as provided by Diagnostics Products Corp., is 18-210 SI units. An IV saline solution was running, 50% glucose was available in case the blood glucose level decreased rapidly, and a diabetologist was present during the study. […] Studies were performed in the Johns Hopkins Outpatient Clinical Research Center. All patients who participated in these experiments gave informed consent to a written description of the study, which was approved by the Institutional Review Board.

[4] = test system: normal subjects and non-insulin dependent diabetic (NIDDM) subjects; assay: Blood glucose response after inhalation of aerosolized insulin; type: in vivo, human; details: for Maximum Decrease in Glucose (% of Baseline): fasting
Description: The timing of each aerosol actuation was controlled by a Rosenthal-French dosimeter and lasted for one second. […] The distance between the subject's mouth and the nebulizer reduced aerosol velocity and, thus, impaction of particles in the mouth. Inspiratory flow rate at the time of aerosol inhalation was regulated to less than 30 and, preferably about 17 liters/minute by rate limiting orifices of the type described above. During inhalation, patients inspired from residual volume to total lung capacity.
After the sixth actuation, aerosol was inhaled from the holding chamber through a mouthpiece. […] Each inhalation was proceeded by six actuations of the nebulizer.

[5] = for Peak Insulin Level: fasting
Description: The timing of each aerosol actuation was controlled by a Rosenthal-French dosimeter and lasted for one second. […] Inspiratory flow rate at the time of aerosol inhalation was regulated to less than 30 and, preferably about 17 liters/minute by rate limiting orifices of the type described above. During inhalation, patients inspired from residual volume to total lung capacity.
After the sixth actuation, aerosol was inhaled from the holding chamber through a mouthpiece. […]
To accomplish this dosing regime, volunteers inhaled 5-13 times from the holding chamber. Each inhalation was preceded by six actuations of the nebulizer.
as §1
When averaging decreases in blood glucose levels the data were normalized in terms of percent change from baseline.

[6] = test system: diabetic subjects; details: intranasal bile-salt aerosol; cited from earlier work
[7] = NIDDM subject 3, 0.21 U/kg BW inhaled
[8] = NIDDM subject 4, 0.23 U/kg BW inhaled
[9] = NIDDM subject 5, 0.21 U/kg BW inhaled
[10] = NIDDM subject 6, 0.20 U/kg BW inhaled
[11] = NIDDM subject 7, 0.20 U/kg BW inhaled
[12] = NIDDM subject 8, 0.20 U/kg BW inhaled
[13] = eight subjects (second dose for subjects 1 and 2), mean dose 0.21 U/kg BW inhaled
[14] = normal subject 1, first dose, 0.09 U/kg BW inhaled
[15] = normal subject 1, second dose, 0.19 U/kg BW inhaled
[16] = normal subject 2, first dose, 0.11 U/kg BW inhaled
[17] = normal subject 2, second dose, 0.21 U/kg BW inhaled

insulin: regular U-500 pork insulin (Eli Lilly) aerosolized by a jet nebulizer; background citations concern insulin given by other routes
Required dose relative to intramuscular dose [1]: 25-50 times | Complaints after rectal administration [2]: some subjects complained of abdominal discomfort or a feeling of rectal urgency | Dose necessary to lower blood glucose significantly, relative to subcutaneous dose [2]: 10 times | Adverse symptoms from the respiratory tract [3]: No adverse symptoms from the respiratory tract were reported or signs observed | Adrenergic, hypoglycemic signs or symptoms ([3]; listed as Aerosolized insulin): lack of any signs or symptoms, including adrenergic symptoms | Tolerability of aerosolized insulin ([3]; listed as Aerosolized insulin): very well tolerated | Tolerability of aerosolized insulin ([3]; listed as aerosolized insulin): well-tolerated | Adrenergic, hypoglycemic signs or symptoms ([3]; listed as insulin aerosol): none of the subjects had adrenergic, hypoglycemic symptoms | Tolerability of aerosolized insulin ([3]; listed as insulin aerosol): well-tolerated | Time to 10% Decrease in Glucose [4, 7]: 30 min | Time to Lowest Glucose Level [4, 7]: 150 min | Maximum Decrease in Glucose (% of Baseline) [4, 7]: 43% | Glucose level decreased to, after insulin inhalation ([4]; NIDDM subject 3, 0.21 U/kg BW inhaled, baseline 10.58): 6.05 SI units | Time to 10% Decrease in Glucose [4, 8]: 30 min | Time to Lowest Glucose Level [4, 8]: 160 min | Maximum Decrease in Glucose (% of Baseline) [4, 8]: 71% | Glucose level decreased to, after insulin inhalation ([4]; NIDDM subject 4, 0.23 U/kg BW inhaled, baseline 16.58): 4.82 SI units | Time to 10% Decrease in Glucose [4, 9]: 40 min | Time to Lowest Glucose Level [4, 9]: 200 min | Maximum Decrease in Glucose (% of Baseline) [4, 9]: 53% | Glucose level decreased to, after insulin inhalation ([4]; NIDDM subject 5, 0.21 U/kg BW inhaled, baseline 12.12): 5.71 SI units | Time to 10% Decrease in Glucose [4, 10]: 42 min | Time to Lowest Glucose Level [4, 10]: 140 min | Maximum Decrease in Glucose (% of Baseline) [4, 10]: 54% | Glucose level decreased to, after insulin inhalation ([4]; NIDDM subject 6, 0.20 U/kg BW inhaled, baseline 9.27): 4.26 SI units | Time to 10% Decrease in Glucose [4, 11]: 20 min | Time to Lowest Glucose Level [4, 11]: 120 min | Maximum Decrease in Glucose (% of Baseline) [4, 11]: 61% | Glucose level decreased to, after insulin inhalation ([4]; NIDDM subject 7, 0.20 U/kg BW inhaled, baseline 13.94): 5.49 SI units | Time to 10% Decrease in Glucose [4, 12]: 60 min | Time to Lowest Glucose Level [4, 12]: 150 min | Maximum Decrease in Glucose (% of Baseline) [4, 12]: 49% | Glucose level decreased to, after insulin inhalation ([4]; NIDDM subject 8, 0.20 U/kg BW inhaled, baseline 13.30): 6.78 SI units | Mean maximum decrease in glucose from baseline ([4]; NIDDM subjects, 0.2 U/kg BW inhaled): 55±10% | Shift of blood glucose levels to the normal range ([4]; NIDDM subjects, approximately 0.2 U/kg BW aerosolized insulin, normal range 4.20-6.44 SI units): shifted blood glucose levels of five of the six NIDDM subjects to within the normal range | Maximum Decrease in Glucose (% of Baseline), mean ([4]; eight subjects (second dose for subjects 1 and 2), 0.2 U/kg BW inhaled): 52±10% and 52% | Time to 10% Decrease in Glucose, mean [4, 13]: 36 ± 15 min and 36 min | Time to Lowest Glucose Level (time to maximum decrease in blood glucose), mean [4, 13]: 138 ± 46 min and 138 min | Glucose level decreased to, after insulin inhalation ([4]; normal subject 1, 0.09 U/kg BW inhaled, baseline 4.70): 4.09 SI units | Glucose level decreased to, after insulin inhalation ([4]; normal subject 1, 0.19 U/kg BW inhaled, baseline 4.70): 3.08 SI units | Time to 10% Decrease in Glucose [4, 14]: 35 min | Time to Lowest Glucose Level [4, 14]: 80 min | Maximum Decrease in Glucose (% of Baseline) [4, 14]: 13% | Time to 10% Decrease in Glucose [4, 15]: 50 min | Time to Lowest Glucose Level [4, 15]: 140 min | Maximum Decrease in Glucose (% of Baseline) [4, 15]: 34% | Glucose level decreased to, after insulin inhalation ([4]; normal subject 2, 0.11 U/kg BW inhaled, baseline 3.95): 3.14 SI units | Glucose level decreased to, after insulin inhalation ([4]; normal subject 2, 0.21 U/kg BW inhaled, baseline 4.34): 2.24 SI units | Time to 10% Decrease in Glucose [4, 16]: 5 min | Time to Lowest Glucose Level [4, 16]: 40 min | Maximum Decrease in Glucose (% of Baseline) [4, 16]: 20% | Time to 10% Decrease in Glucose [4, 17]: 15 min | Time to Lowest Glucose Level [4, 17]: 40 min | Maximum Decrease in Glucose (% of Baseline) [4, 17]: 48% | Mean maximum decrease in glucose from baseline ([4]; normal subjects, 0.2 U/kg BW inhaled): 41±10% | Effect on blood glucose levels ([4]; normal subjects, approximately 0.2 U/kg BW aerosolized insulin to the mouth): effectively lowered blood glucose levels in the normal subjects | Time to Peak Insulin Level [5, 7]: 5 min | log Peak Insulin Level [5, 7]: 2.7694 | Peak Insulin Level [5, 7]: 588 SI units | Time to Peak Insulin Level [5, 8]: 15 min | log Peak Insulin Level [5, 8]: 2.2967 | Peak Insulin Level [5, 8]: 198 SI units | Time to Peak Insulin Level [5, 9]: 40 min | log Peak Insulin Level [5, 9]: 2.3096 | Peak Insulin Level [5, 9]: 204 SI units | Time to Peak Insulin Level [5, 10]: 52 min | log Peak Insulin Level [5, 10]: 2.3909 | Peak Insulin Level [5, 10]: 246 SI units | Time to Peak Insulin Level [5, 11]: 25 min | log Peak Insulin Level [5, 11]: 2.0569 | Peak Insulin Level [5, 11]: 114 SI units | Time to Peak Insulin Level [5, 12]: 100 min | log Peak Insulin Level [5, 12]: 2.7513 | Peak Insulin Level [5, 12]: 564 SI units | Return of blood insulin levels to baseline ([5]; approximately 0.2 U/kg BW inhaled, up to 200 minutes): did not return to baseline by the time the experiment was concluded in seven of the study subjects | Peak Insulin Level, geometric mean [5, 13]: 254 SI units | Time to Peak Insulin Level, mean [5, 13]: 35 min and 35 ± 31 min | log Peak Insulin Level, mean [5, 13]: 2.4055 | Insulin absorption across the lung mucosa compared with subcutaneous administration ([5]; inhaled aerosol): more rapid than following subcutaneous administration | Time to Peak Insulin Level [5, 14]: 10 min | log Peak Insulin Level [5, 14]: 2.1399 | Peak Insulin Level [5, 14]: 138 SI units | Time to Peak Insulin Level [5, 15]: 35 min | log Peak Insulin Level [5, 15]: 2.3345 | Peak Insulin Level [5, 15]: 216 SI units | Time to Peak Insulin Level [5, 16]: 5 min | log Peak Insulin Level [5, 16]: 2.4771 | Peak Insulin Level [5, 16]: 300 SI units | Time to Peak Insulin Level [5, 17]: 5 min | log Peak Insulin Level [5, 17]: 2.3345 | Peak Insulin Level [5, 17]: 216 SI units | Time at which blood insulin levels peaked post inhalation, range ([5]; range over all subjects and doses): between five and one hundred minutes | Amount of insulin absorbed through the nasal mucosa, relative to dose delivered by intravenous injection [6]: approximately 10% | Dose required to lower blood glucose, relative to subcutaneous dose [6]: 2.5 times | Local effects after intranasal administration [6]: subjects reported nasal irritation and nasal congestion
